Results published in ChEMBL document CHEMBL4028801, “A multifactorial approach to hepatobiliary transporter assessment enables improved therapeutic compound development” (Toxicol Sci, 2013).
Counter-ions that a name gives are not always drawn.

Key:
Bile salt export pump = Bile salt export pump (Homo sapiens, UniProt O95342); experiment: Inhibition of human BSEP overexpressed in Sf9 cell membrane vesicles assessed as uptake of [3H]-taurocholate in presence of ATP measured after 15 to 20 mins by membrane vesicle transport assay; assay type: ADME, cell-based
Sequence of Bile salt export pump (O95342 whole entry): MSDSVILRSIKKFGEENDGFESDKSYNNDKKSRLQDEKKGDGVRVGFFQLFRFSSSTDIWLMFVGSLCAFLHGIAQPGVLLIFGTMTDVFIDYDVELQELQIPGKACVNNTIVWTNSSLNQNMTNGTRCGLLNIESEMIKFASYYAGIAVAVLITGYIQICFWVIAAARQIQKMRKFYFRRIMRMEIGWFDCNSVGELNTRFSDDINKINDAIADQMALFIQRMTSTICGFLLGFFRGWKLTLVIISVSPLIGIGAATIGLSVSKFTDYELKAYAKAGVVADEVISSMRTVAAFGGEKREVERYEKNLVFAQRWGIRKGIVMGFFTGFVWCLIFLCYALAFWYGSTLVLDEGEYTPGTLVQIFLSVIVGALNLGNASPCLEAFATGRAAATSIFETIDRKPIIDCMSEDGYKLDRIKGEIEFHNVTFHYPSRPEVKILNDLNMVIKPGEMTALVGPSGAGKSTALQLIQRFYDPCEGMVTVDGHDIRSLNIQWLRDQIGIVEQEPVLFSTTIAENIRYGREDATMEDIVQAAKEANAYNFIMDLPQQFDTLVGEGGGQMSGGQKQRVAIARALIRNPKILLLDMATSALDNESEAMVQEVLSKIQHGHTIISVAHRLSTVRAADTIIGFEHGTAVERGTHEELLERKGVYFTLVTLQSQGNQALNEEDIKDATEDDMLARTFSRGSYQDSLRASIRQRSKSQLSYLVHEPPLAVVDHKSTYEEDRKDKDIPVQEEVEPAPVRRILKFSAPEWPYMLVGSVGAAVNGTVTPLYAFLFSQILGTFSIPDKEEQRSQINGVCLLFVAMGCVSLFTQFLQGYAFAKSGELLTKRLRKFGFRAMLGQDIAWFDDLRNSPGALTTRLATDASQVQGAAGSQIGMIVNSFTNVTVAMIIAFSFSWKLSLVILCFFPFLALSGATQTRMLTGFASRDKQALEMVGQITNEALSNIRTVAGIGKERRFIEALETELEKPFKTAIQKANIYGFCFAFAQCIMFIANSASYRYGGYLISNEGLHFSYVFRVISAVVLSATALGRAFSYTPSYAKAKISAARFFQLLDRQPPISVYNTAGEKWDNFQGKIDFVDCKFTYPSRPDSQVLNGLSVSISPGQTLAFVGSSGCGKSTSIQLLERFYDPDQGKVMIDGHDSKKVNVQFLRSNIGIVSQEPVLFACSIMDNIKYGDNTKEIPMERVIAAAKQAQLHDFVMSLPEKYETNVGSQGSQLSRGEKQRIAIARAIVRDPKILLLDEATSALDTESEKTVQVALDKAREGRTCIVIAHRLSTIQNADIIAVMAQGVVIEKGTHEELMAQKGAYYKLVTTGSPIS

[1] = target: ATP-binding cassette sub-family C member 2 (Homo sapiens, UniProt Q92887); experiment: Inhibition of human MRP2 overexpressed in Sf9 cell membrane vesicles assessed as uptake of [3H]-estradiol-17beta-D-glucuronide in presence of ATP and GSH measured after 20 mins by membrane vesicle transport assay
Sequence of ATP-binding cassette sub-family C member 2 (Q92887 whole entry): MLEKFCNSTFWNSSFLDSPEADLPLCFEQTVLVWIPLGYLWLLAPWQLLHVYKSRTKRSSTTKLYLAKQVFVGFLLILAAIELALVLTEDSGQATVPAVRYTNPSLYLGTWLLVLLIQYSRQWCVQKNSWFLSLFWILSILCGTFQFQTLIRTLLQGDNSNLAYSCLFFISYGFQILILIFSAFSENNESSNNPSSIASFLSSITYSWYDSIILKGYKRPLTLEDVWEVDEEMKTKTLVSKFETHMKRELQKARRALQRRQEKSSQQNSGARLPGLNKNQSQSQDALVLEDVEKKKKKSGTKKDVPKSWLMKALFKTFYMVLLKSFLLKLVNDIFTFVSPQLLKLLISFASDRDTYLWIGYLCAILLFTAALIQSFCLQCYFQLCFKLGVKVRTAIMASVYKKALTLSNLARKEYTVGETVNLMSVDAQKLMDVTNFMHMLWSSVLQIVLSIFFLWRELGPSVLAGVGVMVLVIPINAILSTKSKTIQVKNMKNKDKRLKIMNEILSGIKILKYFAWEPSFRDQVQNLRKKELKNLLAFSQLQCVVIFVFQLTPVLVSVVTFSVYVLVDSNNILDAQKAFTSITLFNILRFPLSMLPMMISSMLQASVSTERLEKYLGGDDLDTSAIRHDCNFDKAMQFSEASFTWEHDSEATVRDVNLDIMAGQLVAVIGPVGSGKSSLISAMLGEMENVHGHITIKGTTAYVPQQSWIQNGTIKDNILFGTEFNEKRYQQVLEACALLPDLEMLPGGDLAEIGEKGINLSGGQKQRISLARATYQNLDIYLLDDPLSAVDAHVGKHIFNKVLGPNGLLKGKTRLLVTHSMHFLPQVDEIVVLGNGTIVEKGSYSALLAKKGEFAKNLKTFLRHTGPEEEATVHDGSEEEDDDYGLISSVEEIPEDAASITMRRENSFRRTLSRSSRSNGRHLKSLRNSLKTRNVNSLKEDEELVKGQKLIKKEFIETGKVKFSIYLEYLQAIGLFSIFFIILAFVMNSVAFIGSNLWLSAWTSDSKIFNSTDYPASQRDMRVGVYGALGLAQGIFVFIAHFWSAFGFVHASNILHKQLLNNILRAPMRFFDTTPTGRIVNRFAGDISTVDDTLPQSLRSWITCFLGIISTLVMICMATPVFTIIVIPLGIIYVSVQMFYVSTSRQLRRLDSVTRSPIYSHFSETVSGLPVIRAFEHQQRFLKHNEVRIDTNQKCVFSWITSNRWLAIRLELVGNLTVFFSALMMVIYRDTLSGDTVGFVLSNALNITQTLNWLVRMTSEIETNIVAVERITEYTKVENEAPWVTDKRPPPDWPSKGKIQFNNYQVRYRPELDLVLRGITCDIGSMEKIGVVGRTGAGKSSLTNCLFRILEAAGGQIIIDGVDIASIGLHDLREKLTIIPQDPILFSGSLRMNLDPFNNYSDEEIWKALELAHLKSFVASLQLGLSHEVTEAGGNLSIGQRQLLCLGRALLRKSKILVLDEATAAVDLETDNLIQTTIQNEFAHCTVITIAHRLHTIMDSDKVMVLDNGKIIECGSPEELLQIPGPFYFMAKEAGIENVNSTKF

[2] = target: ATP-binding cassette sub-family C member 3 (Homo sapiens, UniProt O15438); experiment: Inhibition of human MRP3 overexpressed in Sf9 insect cell membrane vesicles assessed as uptake of [3H]-estradiol-17beta-D-glucuronide in presence of ATP and GSH measured after 10 mins by membrane vesicle transport assay; assay type: ADME, cell-based
Sequence of ATP-binding cassette sub-family C member 3 (O15438 whole entry): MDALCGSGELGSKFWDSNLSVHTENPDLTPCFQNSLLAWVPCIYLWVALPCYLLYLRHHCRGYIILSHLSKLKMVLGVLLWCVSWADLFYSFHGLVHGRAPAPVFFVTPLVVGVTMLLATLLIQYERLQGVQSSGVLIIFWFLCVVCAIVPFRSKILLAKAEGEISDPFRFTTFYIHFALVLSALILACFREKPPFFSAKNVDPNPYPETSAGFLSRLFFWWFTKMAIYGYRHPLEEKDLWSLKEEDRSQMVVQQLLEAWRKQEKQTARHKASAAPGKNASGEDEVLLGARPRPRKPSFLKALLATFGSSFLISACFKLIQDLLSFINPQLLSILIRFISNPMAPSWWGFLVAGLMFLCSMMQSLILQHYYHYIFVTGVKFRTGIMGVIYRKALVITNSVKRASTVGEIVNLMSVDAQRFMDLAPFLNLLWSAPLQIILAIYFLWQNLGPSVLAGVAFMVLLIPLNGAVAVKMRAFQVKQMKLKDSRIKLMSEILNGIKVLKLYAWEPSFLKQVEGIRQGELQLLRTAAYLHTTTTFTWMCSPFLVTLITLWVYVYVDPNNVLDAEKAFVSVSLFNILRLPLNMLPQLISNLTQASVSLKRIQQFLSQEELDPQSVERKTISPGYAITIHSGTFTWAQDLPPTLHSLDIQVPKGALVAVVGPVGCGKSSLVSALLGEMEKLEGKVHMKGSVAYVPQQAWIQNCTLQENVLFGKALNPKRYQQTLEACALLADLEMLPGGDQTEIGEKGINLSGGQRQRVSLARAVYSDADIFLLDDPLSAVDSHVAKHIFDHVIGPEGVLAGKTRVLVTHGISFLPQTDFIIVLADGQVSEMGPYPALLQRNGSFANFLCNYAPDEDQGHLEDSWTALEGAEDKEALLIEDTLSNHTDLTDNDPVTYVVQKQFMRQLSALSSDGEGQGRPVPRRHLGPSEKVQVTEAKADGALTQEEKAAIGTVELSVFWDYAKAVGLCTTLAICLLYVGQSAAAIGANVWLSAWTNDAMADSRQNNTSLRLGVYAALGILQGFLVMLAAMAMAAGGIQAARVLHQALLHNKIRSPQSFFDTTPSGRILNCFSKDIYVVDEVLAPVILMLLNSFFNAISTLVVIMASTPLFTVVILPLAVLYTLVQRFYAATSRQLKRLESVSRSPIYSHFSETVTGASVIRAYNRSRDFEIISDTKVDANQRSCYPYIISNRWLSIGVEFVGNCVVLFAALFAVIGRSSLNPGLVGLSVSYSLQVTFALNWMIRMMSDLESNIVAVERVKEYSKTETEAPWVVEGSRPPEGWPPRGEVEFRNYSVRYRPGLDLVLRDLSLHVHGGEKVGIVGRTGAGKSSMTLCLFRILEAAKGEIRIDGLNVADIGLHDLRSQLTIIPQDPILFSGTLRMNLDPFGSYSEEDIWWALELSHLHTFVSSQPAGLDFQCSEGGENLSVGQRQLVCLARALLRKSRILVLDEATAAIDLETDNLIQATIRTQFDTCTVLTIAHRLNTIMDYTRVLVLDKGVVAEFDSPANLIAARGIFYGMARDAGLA

[3] = target: T1, ATP-binding cassette sub-family C member 4 (Homo sapiens, UniProt O15439); experiment: Inhibition of human MRP4 overexpressed in Sf9 cell membrane vesicles assessed as uptake of [3H]-estradiol-17beta-D-glucuronide in presence of ATP and GSH measured after 20 mins by membrane vesicle transport assay; assay type: ADME, cell-based
T1 sequence (O15439 whole entry): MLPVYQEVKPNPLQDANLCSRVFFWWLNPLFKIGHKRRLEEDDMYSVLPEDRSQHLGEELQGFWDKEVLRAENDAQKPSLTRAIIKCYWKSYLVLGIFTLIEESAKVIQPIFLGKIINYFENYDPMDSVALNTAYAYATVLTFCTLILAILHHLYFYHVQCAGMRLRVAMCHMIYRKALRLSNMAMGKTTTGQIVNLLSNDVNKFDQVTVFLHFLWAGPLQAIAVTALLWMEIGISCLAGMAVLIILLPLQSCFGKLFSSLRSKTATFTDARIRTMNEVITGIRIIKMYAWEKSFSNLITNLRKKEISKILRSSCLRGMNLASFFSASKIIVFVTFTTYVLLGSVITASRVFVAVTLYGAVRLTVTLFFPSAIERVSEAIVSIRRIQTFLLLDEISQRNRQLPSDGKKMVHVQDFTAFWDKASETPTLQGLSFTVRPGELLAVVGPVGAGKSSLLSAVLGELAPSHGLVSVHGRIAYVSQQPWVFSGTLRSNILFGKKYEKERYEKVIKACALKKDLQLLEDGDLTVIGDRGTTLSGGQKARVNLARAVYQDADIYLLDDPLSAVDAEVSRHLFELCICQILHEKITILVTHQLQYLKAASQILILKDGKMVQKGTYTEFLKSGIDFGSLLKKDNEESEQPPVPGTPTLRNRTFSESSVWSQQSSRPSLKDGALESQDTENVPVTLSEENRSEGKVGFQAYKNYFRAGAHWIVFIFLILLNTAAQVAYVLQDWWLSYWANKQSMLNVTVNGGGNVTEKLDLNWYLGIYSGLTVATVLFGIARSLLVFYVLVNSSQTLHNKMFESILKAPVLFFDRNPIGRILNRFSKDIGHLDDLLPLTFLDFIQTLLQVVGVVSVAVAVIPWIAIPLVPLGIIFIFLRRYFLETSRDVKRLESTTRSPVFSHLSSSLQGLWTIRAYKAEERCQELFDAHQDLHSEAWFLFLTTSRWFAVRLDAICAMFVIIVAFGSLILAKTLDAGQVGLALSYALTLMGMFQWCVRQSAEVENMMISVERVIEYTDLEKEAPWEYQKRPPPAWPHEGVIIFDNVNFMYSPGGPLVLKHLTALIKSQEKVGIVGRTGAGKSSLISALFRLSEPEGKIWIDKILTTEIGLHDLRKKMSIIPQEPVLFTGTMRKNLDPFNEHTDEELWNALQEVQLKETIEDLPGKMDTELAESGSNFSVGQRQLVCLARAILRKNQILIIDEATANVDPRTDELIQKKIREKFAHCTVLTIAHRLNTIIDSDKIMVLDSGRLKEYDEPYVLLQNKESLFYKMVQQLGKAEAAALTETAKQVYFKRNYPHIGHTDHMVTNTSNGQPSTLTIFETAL

Structure (SMILES)	IC50 (Bile salt export pump) [µM]	IC50 [1] [µM]	IC50 [2] [µM]	IC50 [3] [µM]
Cc1nccn1CC1CCc2c(c3ccccc3n2C)C1=O (stereo unspecified) [ONDANSETRON]	> 133	> 133	> 133	> 133
COc1ccccc1N1CCN(CCCNc2cc(=O)n(C)c(=O)n2C)CC1	> 133	> 133	> 133	> 133
CC(=O)Nc1ccc(O)cc1 [ACETAMINOPHEN]	> 133	> 133	> 133	> 133
COc1ccc2cc([C@H](C)C(=O)O)ccc2c1 [NAPROXEN]	> 133	> 133	> 133	> 133
COc1ccc2c3c1O[C@H]1C[C@@H](O)C=C[C@@]31CCN(C)C2 [GALANTAMINE]	> 133	> 133	> 133	> 133
C[C@@H](O)[C@H]1C(=O)N2C(C(=O)O)=C(S[C@@H]3CN[C@H](C(=O)Nc4cccc(C(=O)O)c4)C3)[C@H](C)[C@H]12	> 133	56.2	> 133	> 133
COc1cc2nc(N3CCN(C(=O)C4CCCO4)CC3)nc(N)c2cc1OC (stereo unspecified) [TERAZOSIN]	> 133	> 133	> 133	36.8
Nc1nc(N)c2nc(-c3ccccc3)c(N)nc2n1	> 133	> 133	> 133	> 133
O=c1[nH]c2ccccc2n1CCCN1CCC(n2c(=O)[nH]c3cc(Cl)ccc32)CC1 [DOMPERIDONE]	> 133	> 133	> 133	> 133
CC(C)(C#N)c1cc(Cn2cncn2)cc(C(C)(C)C#N)c1 [ANASTROZOLE]	> 133	> 133	> 133	> 133
CC(C)[C@H](N)C(=O)OCCOCn1cnc2c(=O)[nH]c(N)nc21 [VALACYCLOVIR HYDROCHLORIDE]	> 133	> 133	> 133	> 133
CS(=O)(=O)c1ccc([C@@H](O)[C@@H](CO)NC(=O)C(Cl)Cl)cc1 [THIAMPHENICOL]	> 133	> 133	> 133	> 133
CCC(=O)NCC[C@@H]1CCc2ccc3c(c21)CCO3 [RAMELTEON]	> 133	> 133	> 133	> 133
CC(C)NCC(O)COc1ccc(CC(N)=O)cc1 (stereo unspecified) [ATENOLOL]	> 133	> 133	> 133	> 133
O=C1Cc2cc(CCN3CCN(c4nsc5ccccc45)CC3)c(Cl)cc2N1 [ZIPRASIDONE MESYLATE]	> 133	> 133	> 133	> 133
Nc1ccc(S(=O)(=O)Nc2ncccn2)cc1 [SULFADIAZINE]	> 133	> 133	> 133	> 133
O=C(c1ccccc1)c1ccc2n1CCC2C(=O)O (stereo unspecified) [KETOROLAC TROMETHAMINE]	> 133	> 133	> 133	2.7
COc1ccc(Cl)cc1[C@]1(F)C(=O)Nc2cc(C(F)(F)F)ccc21 [FLINDOKALNER]	> 133	> 133	> 133	> 133
OCc1cc(C(O)CNCCCCCCOCCCCc2ccccc2)ccc1O (stereo unspecified) [SALMETEROL XINAFOATE]	> 133	> 133	> 133	> 133
